Measured values taken from patent US12435080B2, “sGC stimulators” (Tisento Therapeutics Inc., priority 2016, dated 2025).
“And” between values parts separate entries of the source, which are not always exact repeats. Identical values can stand only once. Like-named read-outs stand apart in the source and are kept apart here.

Target: T1, sGC enzyme (Homo sapiens, UniProt Q02108+Q02153)
T1 construct: incorporated into these cells detect cGMP formed by the compounds stimulating the sGC enzyme; host or cells: HEK293 cells stably expressing GloSensor 40F cGMP biosensor
T1 sequence (Q02153 1-619): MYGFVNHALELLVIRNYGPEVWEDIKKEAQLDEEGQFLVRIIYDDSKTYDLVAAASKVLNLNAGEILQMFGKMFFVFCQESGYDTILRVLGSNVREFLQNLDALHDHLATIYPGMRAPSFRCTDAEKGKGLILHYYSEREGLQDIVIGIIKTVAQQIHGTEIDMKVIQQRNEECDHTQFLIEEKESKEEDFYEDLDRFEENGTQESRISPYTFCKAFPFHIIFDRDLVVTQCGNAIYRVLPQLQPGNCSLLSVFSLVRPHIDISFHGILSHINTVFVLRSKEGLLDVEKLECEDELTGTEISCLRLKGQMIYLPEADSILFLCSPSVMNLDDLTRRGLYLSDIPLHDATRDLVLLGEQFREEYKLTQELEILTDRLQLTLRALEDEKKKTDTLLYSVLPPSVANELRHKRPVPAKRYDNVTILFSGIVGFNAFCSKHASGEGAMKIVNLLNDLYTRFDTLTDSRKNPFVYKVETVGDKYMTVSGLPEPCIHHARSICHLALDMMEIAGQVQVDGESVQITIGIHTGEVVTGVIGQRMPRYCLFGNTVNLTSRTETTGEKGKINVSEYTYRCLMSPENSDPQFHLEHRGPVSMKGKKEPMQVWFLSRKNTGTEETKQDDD
T1 sequence (Q02108 1-690): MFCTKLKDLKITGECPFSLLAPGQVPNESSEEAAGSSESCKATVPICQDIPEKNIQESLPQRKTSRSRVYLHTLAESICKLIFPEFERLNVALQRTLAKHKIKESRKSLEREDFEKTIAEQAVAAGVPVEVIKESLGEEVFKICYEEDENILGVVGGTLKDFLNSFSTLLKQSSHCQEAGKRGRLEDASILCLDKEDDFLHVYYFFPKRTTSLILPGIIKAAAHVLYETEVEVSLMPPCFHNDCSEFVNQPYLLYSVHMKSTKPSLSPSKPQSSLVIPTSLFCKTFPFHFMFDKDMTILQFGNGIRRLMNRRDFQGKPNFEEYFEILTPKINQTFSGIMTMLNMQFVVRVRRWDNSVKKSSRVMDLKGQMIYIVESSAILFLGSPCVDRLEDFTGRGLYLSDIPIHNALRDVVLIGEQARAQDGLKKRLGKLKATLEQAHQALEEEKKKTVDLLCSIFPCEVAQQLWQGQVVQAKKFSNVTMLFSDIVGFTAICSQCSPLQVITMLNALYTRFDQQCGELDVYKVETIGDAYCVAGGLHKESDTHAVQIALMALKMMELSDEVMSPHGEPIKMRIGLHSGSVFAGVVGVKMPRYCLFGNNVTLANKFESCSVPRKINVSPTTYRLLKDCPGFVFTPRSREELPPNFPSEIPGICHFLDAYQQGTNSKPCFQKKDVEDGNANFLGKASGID
Experiment: cGMP GloSensor cell-based assay, 384-well format
Settings: HEK293 cells expressing GloSensor 40F cGMP, 10 μM DETA-NONOate, normalized to 30 μM Compound Y
Source text: Human embryonic kidney cells (HEK293) cells expressing GloSensor™ 40F cGMP (Part No: CS182801, Promega) were used to evaluate the activity of test compounds. The luminescent biosensors (engineered luciferase) that were incorporated into these cells detect cGMP formed by the compounds stimulating the sGC enzyme and emit luminescence.
cGMP GloSensor cells were maintained in Dulbecco's Modification of Eagle's Medium (DMEM) supplemented with fetal bovine serum (FBS, 10% final) and hygromycine (200 ug/ml). […] Cells were incubated overnight at 37° C. in a humidified chamber with 5% CO2. The next day, medium was removed and cells were replaced with 40 ul/well of GloSensor™, 2 mM (Promega Cat No E1291). Cells were treated for 90 minutes at 25° C. to allow the substrate to equilibrate in the cells. […] For endpoint SAR screening, data were collected after 55 min incubation at room temperature.
Data were fit using a 4-parameter fit (log(agonist) vs. response—variable slope) using GraphPad Prism Software v.5. n=2 for all compounds. […] Compounds failing to elicit a minimum response of 50% are reported as >30 μM or ND.

[1] = compounds in Table IA, read-out: Glo-sensor AbsEC50

## Fc1cc(F)cc(Cc2nn(-c3nc(C(F)(F)F)n[nH]3)c3cccnc23)c1 [Compound I-121, 3-(3,5-Difluorobenzyl)-1-(3-(trifluoromethyl)-1H-1,2,4-triazol-5-yl)-1H-pyrazolo[4,3-b]pyridine]
[1]
  EC50: 100 to 1000 nM

## CC1(c2n[nH]c(-c3nn(Cc4ccccc4F)c4ncccc34)n2)CC1(F)F (stereo not shown) [Compound I-87, 3-(3-(2,2-Difluoro-1-methylcyclopropyl)-1H-1,2,4-triazol-5-yl)-1-(2-fluorobenzyl)-1H-pyrazolo[3,4-b]pyridine]
[1]
  EC50: 100 to 1000 nM

## Fc1n[nH]c(-c2nn(Cc3ccccc3F)c3ncccc23)n1 [Compound I-45, 3-(3-fluoro-1H-1,2,4-triazol-5-yl)-1-(2-fluorobenzyl)-1H-pyrazolo[3,4-b]pyridine]
[1]
  EC50: 100 to 1000 nM

## COCCC(O)c1n[nH]c(-c2nn(Cc3ccccc3F)c3ncccc23)n1 (stereo not shown) [Compound I-116, 1-(5-(1-(2-fluorobenzyl)-1H-pyrazolo[3,4-b]pyridin-3-yl)-1H-1,2,4-triazol-3-yl)-3-methoxypropan-1-ol]
[1]
  EC50: 100 to 1000 nM

## CN(C)C(=O)c1n[nH]c(-c2nn(Cc3ccccc3F)c3ncccc23)n1 [Compound I-74, 5-(1-(2-fluorobenzyl)-1H-pyrazolo[3,4-b]pyridin-3-yl)-N,N-dimethyl-1H-1,2,4-triazole-3-carboxamide]
[1]
  EC50: 100 to 1000 nM

## Fc1ccccc1Cn1nc(-c2nc(C3CNC3)n[nH]2)c2cccnc21 [Compound I-73, 3-(3-(azetidin-3-yl)-1H-1,2,4-triazol-5-yl)-1-(2-fluorobenzyl)-1H-pyrazolo[3,4-b]pyridine]
[1]
  EC50: > 1000 nM and < 100 nM

## Fc1ccccc1Cn1nc(-c2nc(N3CC(F)(F)C3)n[nH]2)c2cccnc21 [Compound I-88, 3-(3-(3,3-difluoroazetidin-1-yl)-1H-1,2,4-triazol-5-yl)-1-(2-fluorobenzyl)-1H-pyrazolo[3,4-b]pyridine]
[1]
  EC50: > 1000 nM

## CC1(c2n[nH]c(-c3nn(Cc4ccccc4F)c4ncccc34)n2)CC1 [Compound I-63, 1-(2-Fluorobenzyl)-3-(3-(1-methylcyclopropyl)-1H-1,2,4-triazol-5-yl)-1H-pyrazolo[3,4-b]pyridine]
[1]
  EC50: < 100 nM

## Fc1ccccc1Cn1nc(-c2nc(C(F)(F)F)n[nH]2)c2ccnnc21 [Compound I-100, 1-(2-Fluorobenzyl)-3-(3-(trifluoromethyl)-1H-1,2,4-triazol-5-yl)-1H-pyrazolo[3,4-c]pyridazine]
[1]
  EC50: 100 to 1000 nM

## FC(F)(F)c1n[nH]c(-c2nn(CCC(F)(F)C(F)(F)F)c3cc(Cl)ccc23)n1 [Compound I-3, 6-chloro-1-(3,3,4,4,4-pentafluorobutyl)-3-(3-(trifluoromethyl)-1H-1,2,4-triazol-5-yl)-1H-indazole]
[1]
  EC50: 100 to 1000 nM

## C=COCc1n[nH]c(-c2nn(Cc3ccccc3F)c3ncccc23)n1 [Compound I-117]
[1]
  EC50: 100 to 1000 nM

## COc1n[nH]c(-c2nn(Cc3ccccc3F)c3ncccc23)n1 [Compound I-82, 1-(2-fluorobenzyl)-3-(3-methoxy-1H-1,2,4-triazol-5-yl)-1H-pyrazolo[3,4-b]pyridine]
[1]
  EC50: 100 to 1000 nM

## Fc1ccccc1Cc1nc(-c2nc(C(F)(F)F)n[nH]2)n2ncccc12 [Compound I-24, 5-(2-Fluorobenzyl)-7-(3-(trifluoromethyl)-1H-1,2,4-triazol-5-yl)imidazo[1,5-b]pyridazine]
Compounds in Table IB, read-out: Glo-sensor Abs EC50
  EC50: > 1000 nM

## CC(O)c1n[nH]c(-c2nn(Cc3ccccc3F)c3ncccc23)n1 (stereo not shown) [Compound I-107, 1-(5-(1-(2-Fluorobenzyl)-1H-pyrazolo[3,4-b]pyridin-3-yl)-1H-1,2,4-triazol-3-yl)ethanol]
[1]
  EC50: < 100 nM

## Fc1ccccc1Cn1nc(-c2nc(CCCCl)n[nH]2)c2cccnc21 [Compound I-69, 3-(3-(3-chloropropyl)-1H-1,2,4-triazol-5-yl)-1-(2-fluorobenzyl)-1H-pyrazolo[3,4-b]pyridine]
[1]
  EC50: 100 to 1000 nM

## CC(C)(O)c1n[nH]c(-c2nn(Cc3ccccc3F)c3ncccc23)n1 [Compound I-94, 2-(5-(1-(2-fluorobenzyl)-1H-pyrazolo[3,4-b]pyridin-3-yl)-1H-1,2,4-triazol-3-yl)propan-2-ol]
[1]
  EC50: 100 to 1000 nM
